Data: patent US9273057B2 (Bristol-Myers Squibb Company, priority 2012, dated 2016)

Molecular target: CK2A1 (CK2α/β) (Homo sapiens, UniProt P68400)
Experiment: CK2 kinase assay, CK2A1 (CK2α/β)
Type: biochemical
Details: Table A; read-out: CK2A1 (CK2α/β) (IC50)

Chain of CK2A1 (CK2α/β) (P68400 whole entry, species assumed): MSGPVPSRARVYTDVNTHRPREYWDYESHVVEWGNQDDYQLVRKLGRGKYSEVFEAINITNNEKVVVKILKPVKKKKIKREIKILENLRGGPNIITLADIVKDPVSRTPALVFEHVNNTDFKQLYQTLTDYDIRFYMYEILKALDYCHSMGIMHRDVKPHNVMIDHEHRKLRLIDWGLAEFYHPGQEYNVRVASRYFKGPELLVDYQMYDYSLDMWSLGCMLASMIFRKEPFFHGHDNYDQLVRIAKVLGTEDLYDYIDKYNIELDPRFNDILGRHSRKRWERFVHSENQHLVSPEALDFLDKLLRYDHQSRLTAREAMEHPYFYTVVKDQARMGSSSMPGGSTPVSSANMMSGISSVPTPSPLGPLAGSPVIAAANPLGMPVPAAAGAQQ
Chain of CK2A1 (CK2α/β) (P67870 whole entry partner, species assumed): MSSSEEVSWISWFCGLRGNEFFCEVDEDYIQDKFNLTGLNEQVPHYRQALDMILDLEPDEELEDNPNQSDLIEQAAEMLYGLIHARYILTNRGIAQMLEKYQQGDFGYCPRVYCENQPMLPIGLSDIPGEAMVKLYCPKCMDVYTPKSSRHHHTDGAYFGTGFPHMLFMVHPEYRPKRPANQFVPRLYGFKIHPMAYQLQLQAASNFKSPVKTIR

Compound | IC50 [nM]
N#Cc1cc(CNC2COC2)c(Cl)c(Nc2nc(NC3CC3)c3ncc(C#N)n3n2)c1 [Example 479, 2-[(2-chloro-5-cyano-3-{[(oxetan-3-yl)amino]methyl}phenyl)amino]-4-(cyclopropylamino)imidazo[2,1-f][1,2,4]triazine-7-carbonitrile] | 1.07
CN1CCC2CCN(c3cc(C#N)cc(Nc4nc(NC5CC5)c5ncc(C#N)n5n4)c3Cl)CC21 (racemic) [Example 456] | 2.9
N#Cc1cc(Nc2nc(NC3CC3)c3ncc(C#N)n3n2)c(Cl)c(N2CC(N3CCOCC3)C2)c1 [Example 152, 2-((2-chloro-5-cyano-3-(3-(4-morpholinyl)-1-azetidinyl)phenyl)amino)-4-(cycloproplamino)imidazo [2,1-f][1,2,4]triazine-7-carbonitrile] | 0.53
CN(CC1CN(c2cc(C#N)cc(Nc3nc(NC4CC4)c4ncc(C#N)n4n3)c2Cl)CCO1)CC(C)(C)O (centres unmarked) [Example 701, 2-{[2-chloro-5-cyano-3-(2-{[(2-hydroxy-2-methylpropyl)(methyl)amino]methyl}morpholin-4-yl)phenyl]amino}-4-(cyclopropylamino)imidazo[2,1-f][1,2,4]triazine-7-carbonitrile] | 2.68
N#Cc1cc(Nc2nc(NC3CC3)c3ncc(C#N)n3n2)c(Cl)c(N2CCN(CC3COCCN3)CC2)c1 (centres unmarked) [Example 598, 2-({2-chloro-5-cyano-3-[4-(morpholin-3-ylmethyl)piperazin-1-yl]phenyl}amino)-4-(cyclopropylamino)imidazo [2,1-f][1,2,4]triazine-7-carbonitrile] | 0.51
CC(=O)NCC1(N2CCN(c3cc(C#N)cc(Nc4nc(NC5CC5)c5ncc(C#N)n5n4)c3Cl)CC2)COC1 [Example 540, N-((3-(4-(2-chloro-5-cyano-3-((7-cyano-4-(cyclopropylamino)imidazo[2,1-f][1,2,4]triazin-2-yl)amino)phenyl)piperazin-1-yl)oxetan-3-yl)methyl)acetamide] | 6.02
C[C@@H](CN1CCN(c2cc(C#N)cc(Nc3nc(NC4CC4)c4ncc(C#N)n4n3)c2Cl)CC1)NS(C)(=O)=O [Example 69, N-((1S)-2-(4-(2-chloro-5-cyano-3-((7-cyano-4-(cyclopropylamino)imidazo[2,1-f][1,2,4]triazin-2-yl)amino)phenyl)-1-piperazinyl)-1-methylethyl) methanesulfonamide] | 0.47
CC1(C(=O)N2CCN(c3cc(C(F)F)cc(Nc4nc(NC5CC5)c5ncc(C#N)n5n4)c3Cl)CC2)COC1 [Example 273, 2-((2-chloro-5-(difluoromethyl)-3-(4-((3-methyl-3-oxetanyl)carbonyl)-1-piperazinyl)phenyl)amino)-4-(cyclopropylamino)imidazo[2,1-f][1,2,4]triazine-7-carbonitrile] | 2.11
CCNc1nc(Nc2cc(C#N)cc(C3CCN(C4CN(S(C)(=O)=O)C4)CC3)c2Cl)nn2c(C#N)cnc12 [Example 355, 2-((2-chloro-5-cyano-3-(1-(1-(methylsulfonyl)-3-azetidinyl)-4-piperidinyl)phenyl)amino)-4-(ethylamino)imidazo[2,1-f][1,2,4]triazine-7-carbonitrile] | 5.23
N#Cc1cc(Nc2nc(NC3CC3)c3ncc(C#N)n3n2)c(Cl)c(N2CCN(C3CN(S(=O)(=O)CC(F)(F)F)C3)CC2)c1 [Example 507, 2-[(2-chloro-5-cyano-3-{4-[1-(2,2,2-trifluoroethanesulfonyl)azetidin-3-yl]piperazin-1-yl}phenyl)amino]-4-(cyclopropylamino)imidazo[2,1-f][1,2,4]triazine-7-carbonitrile] | 16.9
CN(C)C(=O)C1CN(c2cc(C#N)cc(Nc3nc(NC4CC4)c4ncc(C#N)n4n3)c2Cl)CCN1 (centres unmarked) [Example 563, 4-(2-chloro-5-cyano-3-((7-cyano-4-(cyclopropylamino)imidazo[2,1-f][1,2,4]triazin-2-yl)amino)phenyl)-N,N-dimethylpiperazine-2-carboxamide] | 0.79
